Test results taken from patent US7018828B1, “Microbial culture medium containing agar and iota carrageenan” (priority 2001, dated 2006).

Legend:
[1] = Syneresis of agar-based media (Blood, Chocolate, MacConkey, Azide blood agar) after storage; type: physicochemical; settings: 0.2% iota carrageenan plus 1 mM calcium chloride; each of four agars; 28 days at 5° C.
Method: In a first example, the ability of iota carrageenan to stabilize agar-based media was assessed. The media chosen for this example were used in several of the embodiments of the agar-based media of the invention listed in this application. More specifically, in this example, Blood agar, Chocolate agar, MacConkey agar, and Azide blood agar were each prepared three different ways: (1) without any additions, to serve as a control, (2) with the addition of 0.2% (final concentration) Iota Carrageenan, and (3) with the addition of 0.2% Iota Carrageenan plus 1 mM Calcium chloride. These additions were made at time of hydration as described above, and prior to autoclaving. Following the sterilization step (autoclaving), the processes of preparing blood agar, chocolate agar and azide blood agar from the base media were performed using standard microbiology methods. Defibrinated sterile sheep red blood cells and sodium azide were two of the reagents used. The complete MacConkey medium was prepared using all three ways prior to autoclaving. Each of the twelve different media were dispensed at 50° C. into four polystyrene sterile T-flasks (25 cm^2) with tight-fitting screw caps and stored for 28 days at refrigerator temperature(5° C.), at which point the amount of water of syneresis was measured. […]

[2] = Syneresis of Mueller-Hinton agar at various iota carrageenan concentrations with and without calcium; type: physicochemical; settings: 1 mM calcium added; media with 0.4%, 0.6% and 0.8% iota carrageenan
Method: In a second example, research was conducted to determine the ability of iota carrageenan to stabilize agar gels at a variety of concentrations of carrageenan with and without calcium. The results of this research are summarized in the tables of FIG. 41A entitled: “The Effect of Iota Carrageenan, Without Added Calcium, on Syneresis of Mueller-Hinton Agar,” and in FIG. 42A, entitled: “The Effect of Iota Carrageenan, with 1 mM added Calcium, on Syneresis of Mueller-Hinton Agar. The graphs associated with the above two figures found in FIG. 41B and 42B pictorially illustrate the syneresis-reducing-effect of iota carrageenan and the synergistic effects of adding calcium with certain concentrations of iota carrageenan

Compound: [Ca+2].[Cl-].[Cl-] [calcium, Calcium chloride]
- amount of water of syneresis, effect of adding calcium to carrageenan media [1]: further reduced the amount of syneresis
- syneresis of Mueller-Hinton agar, effect of adding calcium [2]: effect of adding calcium is also apparent
